Patent US20240368150A1 (Hoffmann-La Roche Inc., priority 2021, published 2024)
Where two headings read alike, the source gives them in different places.

How the values were obtained:
primary human T-cells [1] = test: Proliferation assay after 5 days (CellTiter-Glo, CD3 stimulation; PBS counter screen); type: cell-based; details: CD3 stimulation; for Emax: 5 days, normalized to reference compound A1 as stimulator control = 100%, DMSO neutral control, read-out: Emax proliferation (% activation); for EC50: primary human T-cells, CellTiter-Glo after 5 days, EC50 of fitted sigmoidal curve, read-out: Tcell Proliferation CD3 EC50
In short: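 After compound addition to medium-only plates, cells are cultured 5 days, equilibrated to room temperature, mixed with an equal volume of CellTiter-Glo 2.0 and rocked 15 min before luminescence is read. Signal reflects ATP content, taken as proportional to cell number.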

primary human T-cells [2] = system: primary human T-cells

Structure (SMILES)	Emax (primary human T-cells [1]; Homo sapiens, T-cell, 120 h) [%]	EC50 (primary human T-cells [1]; Homo sapiens, T-cell, 120 h) [nM]	EC50 (primary human T-cells [2]) [nM]	EC50 (primary human T-cells [1]; T-cell, 120 h) [nM]	EC50 (primary human T-cells [1]) [nM]
CC(C)(C#N)Nc1nnc(-c2cc3c(cc2F)S(=O)(=O)C[C@H](N)C(=O)N3Cc2ccc(Cl)cc2)o1 [Example 486, 2-methyl-2-[[5-[(3R)-3-amino-5-[(4-chlorophenyl)methyl]-8-fluoro-1,1,4-trioxo-2,3-dihydro-1λ^6,5-benzothiazepin-7-yl]-1,3,4-oxadiazol-2-yl]amino]propanenitrile]	106	2680	6690	–	–
N[C@H]1CS(=O)(=O)c2ccc(-c3nnc(N4CC5(CCCO5)C4)o3)cc2N(Cc2ccc(Cl)cc2)C1=O [Example 404, (3R)-3-amino-5-[(4-chlorophenyl)methyl]-7-[5-(5-oxa-2-azaspiro[3.4]octan-2-yl)-1,3,4-oxadiazol-2-yl]-1,1-dioxo-2,3-dihydro-1λ^6,5-benzothiazepin-4-one]	101	2350	8110	–	–
N[C@H]1CS(=O)(=O)c2cc(F)c(-c3noc(C4(CO)CCCO4)n3)cc2N(Cc2ccc(Cl)cc2)C1=O (stereo partly drawn) [Example 320, (3R)-3-amino-5-[(4-chlorophenyl)methyl]-8-fluoro-7-[5-[2-(hydroxymethyl)tetrahydrofuran-2-yl]-1,2,4-oxadiazol-3-yl]-1,1-dioxo-2,3-dihydro-1λ^6,5-benzothiazepin-4-one]	107	3060	3210	–	–
N[C@H]1CS(=O)(=O)c2ccc(-c3nnc(C(F)(F)C(F)(F)F)o3)cc2N(Cc2ccc(Cl)cc2)C1=O [Example 363, (3R)-3-amino-5-[(4-chlorophenyl)methyl]-1,1-dioxo-7-[5-(1,1,2,2,2-pentafluoroethyl)-1,3,4-oxadiazol-2-yl]-2,3-dihydro-1λ^6,5-benzothiazepin-4-one]	50	–	2170	> 10000	–
CC(C)Nc1nnc(-c2ccc3c(c2)N(Cc2ccc(Cl)cc2)C(=O)[C@@H](N)CS3(=O)=O)o1 [Example 399, (3R)-3-amino-5-[(4-chlorophenyl)methyl]-7-[5-(isopropylamino)-1,3,4-oxadiazol-2-yl]-1,1-dioxo-2,3-dihydro-1λ^6,5-benzothiazepin-4-one]	73	3460	3580	–	–
CC1(C)CNCC(c2nc(-c3cc4c(cc3F)S(=O)(=O)C[C@H](N)C(=O)N4Cc3ccc(Cl)cc3)no2)C1 (stereo partly drawn) [Example 302, (3R)-3-amino-5-[(4-chlorophenyl)methyl]-7-[5-(5,5-dimethyl-3-piperidyl)-1,2,4-oxadiazol-3-yl]-8-fluoro-1,1-dioxo-2,3-dihydro-1λ^6,5-benzothiazepin-4-one]	76	990	> 10000	–	–
CC(Nc1nnc(-c2cc3c(cc2F)S(=O)(=O)C[C@H](N)C(=O)N3Cc2ccc(Cl)cc2)o1)C1CC1(F)F (single isomer, unassigned) [Example 495]	93	–	799	–	263
COC(C)(C)c1nnc(-c2ccc3c(c2)N(Cc2ccc(Cl)cc2)C(=O)[C@@H](N)CS3(=O)=O)o1 [Example 368]	103	6560	5550	–	–
N[C@H]1CS(=O)(=O)c2ccc(-c3nnc(CC(F)(F)F)o3)c(F)c2N(Cc2ccc(Cl)cc2)C1=O [Example 217, (3R)-3-amino-5-[(4-chlorophenyl)methyl]-6-fluoro-1,1-dioxo-7-[5-(2,2,2-trifluoroethyl)-1,3,4-oxadiazol-2-yl]-2,3-dihydro-1λ^6,5-benzothiazepin-4-one]	221	2110	780	–	–
NC1CN(c2nnc(-c3cc4c(cc3F)S(=O)(=O)C[C@H](N)C(=O)N4Cc3ccc(Cl)cc3)o2)CC(F)(F)C1 (stereo partly drawn) [Example 477, (3R)-3-amino-7-[5-(5-amino-3,3-difluoro-1-piperidyl)-1,3,4-oxadiazol-2-yl]-5-[(4-chlorophenyl)methyl]-8-fluoro-1,1-dioxo-2,3-dihydro-1λ^6.5-benzothiazepin-4-one]	77	3490	2700	–	–
N[C@H]1CS(=O)(=O)c2cc(F)c(-c3nnc(C4CNCCC4(F)F)o3)cc2N(Cc2ccc(Cl)cc2)C1=O (stereo partly drawn) [Example 105, (3R)-3-amino-5-[(4-chlorophenyl)methyl]-7-[5-(4,4-difluoro-3-piperidyl)-1,3,4-oxadiazol-2-yl]-8-fluoro-1,1-dioxo-2,3-dihydro-1λ^6,5-benzothiazepin-4-one]	31	4160	1170	–	–
N[C@H]1CS(=O)(=O)c2cc(F)c(-c3nnc(N4CC5(CCCO5)C4)o3)cc2N(Cc2ccc(Cl)cc2)C1=O [Example 505, (3R)-3-amino-5-[(4-chlorophenyl)methyl]-8-fluoro-7-[5-(5-oxa-2-azaspiro[3.4]octan-2-yl)-1,3,4-oxadiazol-2-yl]-1,1-dioxo-2,3-dihydro-1λ^6,5-benzothiazepin-4-one]	94	182	191	–	–
CC(C)(C)c1nnc(-c2ccc3c(c2)N(Cc2ccc(OC4CCOCC4)cc2)C(=O)[C@@H](N)CS3(=O)=O)o1 [Example 436, (3R)-3-amino-7-(5-tert-butyl-1,3,4-oxadiazol-2-yl)-1,1-dioxo-5-[(4-tetrahydropyran-4-yloxyphenyl)methyl]-2,3-dihydro-1λ^6,5-benzothiazepin-4-one]	66	940	4230	–	–
N[C@H]1CS(=O)(=O)c2cc(F)c(-c3nc4n(n3)CCNC4C(F)(F)F)cc2N(Cc2ccc(OC(F)(F)F)cc2)C1=O (stereo partly drawn) [Example 288, (3R)-3-amino-8-fluoro-1,1-dioxo-5-[[4-(trifluoromethoxy)phenyl]methyl]-7-[8-(trifluoromethyl)-5,6,7,8-tetrahydro-[1,2,4]triazolo[1,5-a]pyrazin-2-yl]-2,3-dihydro-1λ^6,5-benzothiazepin-4-one]	71	4310	> 10000	–	–
CN(CCO)CC(C)(C)c1nnc(-c2cc3c(cc2F)S(=O)(=O)C[C@H](N)C(=O)N3Cc2ccc(Cl)cc2)o1 [Example 139, (3R)-3-amino-5-[(4-chlorophenyl)methyl]-8-fluoro-7-[5-[2-[2-hydroxyethyl(methyl)amino]-1,1-dimethyl-ethyl]-1,3,4-oxadiazol-2-yl]-1,1-dioxo-2,3-dihydro-1λ^6,5-benzothiazepin-4-one]	102	3400	4000	–	–
Cc1nnc(-c2nc(-c3cc4c(cc3F)S(=O)(=O)C[C@H](N)C(=O)N4Cc3ccc(Cl)cc3)no2)o1 [Example 322, (3R)-3-amino-5-[(4-chlorophenyl)methyl]-8-fluoro-7-[5-(5-methyl-1,3,4-oxadiazol-2-yl)-1,2,4-oxadiazol-3-yl]-1,1-dioxo-2,3-dihydro-1λ^6,5-benzothiazepin-4-one]	110	751	740	–	–
N[C@H]1CS(=O)(=O)c2cc(F)c(-c3nnc(C4CCC(F)(F)CC4)o3)cc2N(Cc2ccc(Cl)cc2)C1=O [Example 73, (3R)-3-Amino-5-[(4-chlorophenyl)methyl]-7-[5-(4,4-difluorocyclohexyl)-1,3,4-oxadiazol-2-yl]-8-fluoro-1,1-dioxo-2,3-dihydro-1λ^6,5-benzothiazepin-4-one]	194	126	50.2	–	–
COC(=O)N1CC2(c3nnc(-c4cc5c(cc4F)S(=O)(=O)C[C@H](N)C(=O)N5Cc4ccc(Cl)cc4)o3)CC1CO2 (stereo partly drawn) [Example 120, methyl 1-[5-[(3R)-3-amino-5-[(4-chlorophenyl)methyl]-8-fluoro-1,1,4-trioxo-2,3-dihydro-1λ^6,5-benzothiazepin-7-yl]-1,3,4-oxadiazol-2-yl]-2-oxa-5-azabicyclo[2.2.1]heptane-5-carboxylate]	96	129	256	–	–
CC(C)OCc1nnc(-c2cc3c(cc2F)S(=O)(=O)C[C@H](N)C(=O)N3Cc2ccc(Cl)cc2)o1 [Example 89, (3R)-3-amino-5-[(4-chlorophenyl)methyl]-8-fluoro-7-[5-(isopropoxymethyl)-1,3,4-oxadiazol-2-yl]-1,1-dioxo-2,3-dihydro-1λ^6,5-benzothiazepin-4-one]	104	615	117	–	–
COC(=O)N1CC2CC(c3nc(-c4cc5c(cc4F)S(=N)(=O)C[C@H](N)C(=O)N5Cc4ccc(OC(F)(F)C(F)F)cc4)no3)(C2)C1 (stereo partly drawn) [Example 520, methyl 1-[3-[(3R)-3-amino-8-fluoro-1-imino-1,4-dioxo-5-[[4-(1,1,2,2-tetrafluoroethoxy)phenyl]methyl]-2,3-dihydro-1λ^6,5-benzothiazepin-7-yl]-1,2,4-oxadiazol-5-yl]-3-azabicyclo[3.1.1]heptane-3-carboxylate]	42	267	1150	–	–
Cc1cc2c(cc1-c1nnc(C(C)C#N)o1)N(Cc1ccc(Cl)cc1)C(=O)[C@@H](N)CS2(=O)=O (stereo partly drawn) [Example 277, 2-[5-[(3R)-3-amino-5-[(4-chlorophenyl)methyl]-8-methyl-1,1,4-trioxo-2,3-dihydro-1λ^6,5-benzothiazepin-7-yl]-1,3,4-oxadiazol-2-yl]propanenitrile]	59	8220	6940	–	–
CC(C)(C)c1nnc(-c2cc3c(cc2F)S(=O)(=O)C[C@H](N)C(=O)N3Cc2ccc(Cl)cc2)s1 [Example 508, (3R)-3-amino-7-(5-tert-butyl-1,3,4-thiadiazol-2-yl)-5-[(4-chlorophenyl)methyl]-8-fluoro-1,1-dioxo-2,3-dihydro-1λ^6,5-benzothiazepin-4-one]	110	396	459	–	–
